Where two headings read alike, the source gives them in different places. No end group written: not given here.

This note sets out measurements from publication PMC8661510, “Computational study, synthesis and evaluation of active peptides derived from Parasporin-2 and spike protein from Alphacoronavirus against colorectal cancer cells” (Bioscience Reports, 2021).

Data set [1] relates to SW480 cells. The data set is described as follows: Annexin V-Cy3/6-CFDA staining, SW480. In kind it is cell-based, Human. The following applies: EC50 concentration, 24 and 48 h. How it is done: (§1) The presence of phosphatidylserine at the cell surface was detected by phosphatidylserine binding protein annexin V conjugated with Cy3 using the commercially available Annexin V-Cy3 apoptosis detection kit (APOAC, Apoptosis Detection Kit, Sigma). […] The PBS and binding buffer were used to wash the adherent cells and the washed cell adherents were suspended in 50 µl of Ann-Cy3 and 6-CFDA. Then, the plates were incubated for 10 min in the dark. Afterwards, the excess label was removed by washing the cells with binding buffer. EVOS M7000 digital inverted fluorescence microscope (ThermoFisher Scientific; Waltham, MA, U.S.A.) was used to observe Ann-Cy3 and 6-CFDA-labeled cells. This assay allowed one to differentiate live cells (green), necrotic cells (red), and apoptotic cells (red nuclei and green cytoplasm). The percentage of cells reflecting apoptotic and necrotic cells was manually calculated. Data were collected for three replicates and used to calculate the respective means and standard deviations.

Data set [2] has as its system SW620 cells. The data set is described as follows: Annexin V-Cy3/6-CFDA staining, SW620. In kind it is cell-based, Human. The following applies: EC50 concentration, 24 and 48 h. How it is done: as §1
The subject of data set [3] is SW480 cells. As to the kind of experiment: cells. To be noted: Homo sapiens, SW480, 48 h.
Data set [4] deals with SW620 cells. The data set is described as follows: cells. To be noted: Homo sapiens, SW-620, 48 h.
A short description of another data set: Hemolytic activity assay. In kind it is cell-based. To be noted: human, erythrocytes; 150 μM peptide; relative to 0.1% Triton X-100; read-out: %HC50 at 150 μM (percentage of hemolysis).
Data set [5] relates to SW480 cells. To be noted: for EC50: 48 h; for percentage of viability SW480 cells: human, 150 µM.
Data set [6] has as its system SW620 cells. To be noted: for EC50: 48 h; for percentage of cell viability SW620 cells: human, 150 µM.

For `O=c1[nH]cc(F)c(=O)[nH]1` [5-FU, 5-Fluorouracil], the “Annexin V-Cy3/6-CFDA staining result” value in the data set with SW480 cells [1] and with SW620 cells [2] was “Same results” in each case. For the same compound, the EC50 in the data set with SW480 cells [3] (read-out: EC50 SW480) was determined as 24.4 ± 0.82 µM; in the data set with SW620 cells [4] (read-out: EC50 SW620), 11.9 ± 1.2 µM. Besides, the viability at 150 µM worked out at 18.9% in the data set with SW480 cells [3] (read-out: percentage of viability SW480 cells) and 2.8% in the data set with SW620 cells [4] (read-out: percentage of cell viability SW620 cells).
“TYFNAVKPPITA-NH2 [Loop2-PS2Aa, TYFNAVKPPITA-NH2]”: in the data set “Hemolytic activity assay”, the hemolysis at 150 μM turned out to be 9.4%. Further, in the data set on SW480 cells [5], the EC50 came out at 93 ± 0.98 µM and the “percentage of viability SW480 cells” value was 39.5%. Moreover, in the data set on SW620 cells [6], the EC50 amounted to 16 ± 0.69 µM and the “percentage of cell viability SW620 cells” value came out at 24.1%.
Turning to “PARDVLNTTSG-NH2 [P264-G274, PARDVLNTTSG-NH2]”, the hemolysis at 150 μM in the data set “Hemolytic activity assay” came to 12.2%. For the same compound, in the data set with SW480 cells [5], a half-maximal response (EC50) required 90.98 ± 0.75 µM and the “percentage of viability SW480 cells” value turned out to be 41.6%. In addition, in the data set with SW620 cells [6], the EC50 amounted to 11.3 ± 0.52 µM and the “percentage of cell viability SW620 cells” value was 16.5%.
On the same counts, the results for “H-FLGWLFKVASK-NH2 [A4W-GGN5, FLGWLFKVASK-NH2, reference compound]” are 23%, 98.6 ± 1.17 µM, 41.8%, 22.1 ± 1.63 µM and 32.2%.
For “NNETYFNAVKP-NH2 [Loop1-PS2Aa, NNETYFNAVKP-NH2]”, in that order: 18.1%, 23.8 ± 1.25 µM, 16%, 106 ± 1.67 µM and 46.8%.
For “FKPQSGGGKCF-NH2 [Loop1-HCoV-229E, FKPQSGGGKCF-NH2]”, the hemolysis at 150 μM in “Hemolytic activity assay” amounted to 9.2%. In the data set on SW480 cells [5], the concentration giving a half-maximal response (EC50) worked out at 125 ± 1.32 µM and the “percentage of viability SW480 cells” value amounted to 56.2%. For the same compound, in the data set with SW620 cells [6], the EC50 is over 150 µM and the “percentage of cell viability SW620 cells” value is 55.2%.
